# Patent US20200282009A1, “METHODS OF TREATING DISEASES ASSOCIATED WITH VASCULAR SMOOTH MUSCLE CELL PROLIFERATION” (BioLineRx Ltd., priority 2017, published 2020)
# [ ]: non-standard residue; d: D form. The star is where a group is joined. Benzoyl(4-F) = O=C(c1ccc(F)cc1)*; Cit = NC(=O)NCCC[C@H](N)C(=O)O
# Assays:
# Ki67, Cyclin D1, BCL-2 = assay: Immunohistochemistry of xenograft tumor sections; assay type: in vivo, NSG mice
# Method: For histological analysis, tumor tissue was cut into […] sections, deparaffinized with xylene, and hydrated through graded ethanol. Endogenous peroxidase was blocked by incubation for 5 minutes in 3% H2O2. A 25-mM citrate buffer (pH 6.0) was used for antigen retrieval, cooked in a pressure cooker for 20 minutes, and left to cool for 30 minutes at room temperature. Slides were washed in Optimax (Pharmatrade) and incubated with primary Ab diluted in CAS-Block (Zymed Laboratories). For Ki67 1:100 (Thermo Scientific), for CXCR4 anti-human CXCR4 monoclonal antibody clone 12G5 1:100 (R&D), for CXCL12 monoclonal CXCL12 antibody 79018 (R&D), for BCL-2 monoclonal BCL-2 antibody clone 124 (cell marque) and for cyclinD1 monoclonal BCL-1 antibody clone sp4 (spring). Staining overnight at 4° C. For all stainings, a conjugated horseradish peroxidase secondary Ab anti mouse or anti rabbit (Envision; Dako) was used for 30 minutes and developing was done with diaminobenzidine for 5 minutes followed by counterstaining with hematoxylin. For ki67, BCL-2 and Cyclin D1, staining levels were quantified using the Image Pro Analyzer image analysis software.
# (§1) Human SK-N-BE(2) cells were orthotopically injected into the left adrenal gland of 6-8 weeks old NSG mice. A 27-gauge needle was introduced through the left adrenal fat pad and 5×10∧5 cells/20 μl PBS were inoculated to the adrenal gland. NSG mice were maintained under defined flora conditions at the Hebrew University Pathogen-Free Animal Facility. Tumor growth and volume were monitored bi-weekly by using T2-weighted MRI until tumors reached the ethical limit volume and mice were randomized to drug-treated or control mice. Mice in the treated group were subjected to 2 treatment protocols. In the first treatment protocol BL-8040 (400 μg) was injected daily, starting three days following inoculation, and was continued for 35 days. In the second treatment protocol mice were monitored for 21 days. As of day 7, mice were treated with a daily injection of BL-8040 (400 μg) for 14 consecutive days.
# [1] = test system: miR-15a, miR-16-1, BCL-2, CCND1, c-myc in Shy-SY5Y cells; assay: qPCR of treated cells in-vitro; assay type: cell-based, human; details: 20 μM, 24 hours
# Method: (§2) Total RNA from various cell lines and mouse tissues was isolated using Trizol reagent (Invitrogen) according to the manufacture's protocol, followed by DNaseI treatment using the DNaseI Kit where needed (Ambion). The concentrations were measured by Nanodrop (ND spectrophotometer) and the integrity was analyzed by gel electrophoreses on 1% agarose gel.
# (§3) cDNA was synthesized from 0.5-1 μg total RNA using the Quanta Biosciences qScript™ cDNA Synthesis Kit (95047-100) for mRNA analysis, and using the qScript™ microRNA cDNA Synthesis Kit (95107-100) for miRNAs analysis. Quantiative PCR (qPCR) of miRNAs and mRNA was performed using the CFX384, C1000 touch thermal cycler (Bio-Rad) and a SYBR Green PCR Kit: Quanta Cat. #84018 and #84071, respectively. The fold expression and statistical significance were calculated using the 2-ΔΔ Ct method. All experiments were performed in triplicate.
# [2] = test system: miR-15a, miR-16-1, BCL-2, CCND1, c-myc in SK-N-BE(2) cells; assay: qPCR of treated cells in-vitro; assay type: cell-based, human; details: 20 μM, 24 hours
# Method: as §2, §3
# [3] = test system: miR-15a, miR-16-1, BCL-2, CCND1; assay: qPCR of RNA from xenograft tumors; assay type: in vivo, NSG mice; details: treated vs un-treated tumors
# Method: as §2, §3, §1
# [4] = test system: BCL-2, cycD1, pERK in Shy-SY5Y cells; assay: Western blot analysis of treated cells; assay type: cell-based, human; details: 20 μM, 24 hours
substance,measurement,setting,value
4F-benzoyl-Arg-Arg-Nal-Cys-Tyr-Cit-Lys-DLys-Pro-Tyr-Arg-Cit-Cys-Arg-NH2 ({Benzoyl(4-F)}-RR[Nal]CY[Cit]K[dK]PYR[Cit]CR-NH2; not fully specified; printed as 4F-benzoyl-Arg-Arg-Nal-Cys-Tyr-Cit-Lys-DLys-Pro-Tyr-Arg-Cit-Cys-Arg-NH2; cysteine pairing not given here) [BL-8040],Ki67 staining of tumor sections,"Ki67, Cyclin D1, BCL-2; 400 μg daily for 14 days from day 7, compared to controls",reduced Ki67 staining
same,"reduction in Cyclin D1 expression, tumor sections (IHC)","Ki67, Cyclin D1, BCL-2; treated vs control sections, significant",56%
same,"reduction in BCL-2 staining, tumor sections (IHC)","Ki67, Cyclin D1, BCL-2; treated vs control, staining weak, difference not significant",36%
same,BCL-2 mRNA (qPCR),[1],reduced
same,CCND1 mRNA (qPCR),[1],reduced only in the Shy-SY5Y cells
same,c-myc mRNA (qPCR),[1],reduced significantly
same,miR-15a level (qPCR),[1],significant increase
same,miR-16-1 level (qPCR),[1],not miR-16-1
same,BCL-2 mRNA (qPCR),[2],reduced
same,CCND1 mRNA (qPCR),[2],reduced only in the Shy-SY5Y cells
same,c-myc mRNA (qPCR),[2],reduced significantly
same,miR-15a level (qPCR),[2],significant increase
same,miR-16-1 level (qPCR),[2],not miR-16-1
same,BCL-2 mRNA in tumors (qPCR),[3],significantly downregulated
same,CCND1 mRNA in tumors (qPCR),[3],significantly downregulated
same,miR-15a level in tumors (qPCR),[3]; n=9,significantly elevated
same,miR-16-1 level in tumors (qPCR),[3]; n=9,significantly elevated
same,BCL-2 protein (western blot),[4],reduction
same,ERK phosphorylation (western blot),[4],decreased ERK phosphorylation
same,cycD1 protein (western blot),[4],reduction
